From patent US20260130395A1, “Water Dispersible Botanical Compositions” (Aquila Black Limited, priority 2021, published 2026)

Assay: Stability of cannabinoid compounds and Vitamin E components in Beverage 2 (AB Red) by LCMSMS
Format: physicochemical

C=C(C)[C@@H]1CCC(C)=C[C@H]1c1c(O)cc(CCCCC)c(C(=O)O)c1O [CBDA, cannabidiolic acid]
Stability of Plant-Derived Cannabinoid Compounds in AB Red (stored at 8° C., 0 days): 1.68 µg/mL
Stability of Plant-Derived Cannabinoid Compounds in AB Red (stored at 8° C., 1 days): 1.69 µg/mL
Stability of Plant-Derived Cannabinoid Compounds in AB Red (stored at 8° C., 2 days): 1.66 µg/mL
Stability of Plant-Derived Cannabinoid Compounds in AB Red (stored at 8° C., 3 days): 1.64 µg/mL
Stability of Plant-Derived Cannabinoid Compounds in AB Red (stored at 8° C., 5 days): 1.67 µg/mL
Stability of Plant-Derived Cannabinoid Compounds in AB Red (stored at 8° C., 8 days): 1.68 µg/mL
Stability of Plant-Derived Cannabinoid Compounds in AB Red (stored at 8° C., 9 days): 1.65 µg/mL
Stability of Plant-Derived Cannabinoid Compounds in AB Red (stored at 8° C., 10 days): 1.67 µg/mL
Stability of Plant-Derived Cannabinoid Compounds in AB Red (stored at 8° C., 11 days): 1.65 µg/mL
Stability of Plant-Derived Cannabinoid Compounds in AB Red (stored at 8° C., 12 days): 1.68 µg/mL
Stability of Plant-Derived Cannabinoid Compounds in AB Red (stored at 8° C., 15 days): 1.67 µg/mL
Stability of Plant-Derived Cannabinoid Compounds in AB Red (stored at 8° C., 16 days): 1.69 µg/mL
Stability of Plant-Derived Cannabinoid Compounds in AB Red (stored at 8° C., 17 days): 1.64 µg/mL
Stability of Plant-Derived Cannabinoid Compounds in AB Red (stored at 8° C., 18 days): 1.65 µg/mL
Stability of Plant-Derived Cannabinoid Compounds in AB Red (stored at 8° C., 19 days): 1.68 µg/mL
Stability of Plant-Derived Cannabinoid Compounds in AB Red (stored at 8° C., 22 days): 1.70 µg/mL
Stability of Plant-Derived Cannabinoid Compounds in AB Red (stored at 8° C., 23 days): 1.63 µg/mL
Stability of Plant-Derived Cannabinoid Compounds in AB Red (stored at 8° C., 24 days): 1.70 µg/mL
Stability of Plant-Derived Cannabinoid Compounds in AB Red (stored at 8° C., 25 days): 1.63 µg/mL
Stability of Plant-Derived Cannabinoid Compounds in AB Red (stored at 8° C., 26 days): 1.63 µg/mL
Stability of Plant-Derived Cannabinoid Compounds in AB Red (stored at 8° C., 29 days): 1.66 µg/mL
Stability of Plant-Derived Cannabinoid Compounds in AB Red (stored at 8° C., 30 days): 1.70 µg/mL
Stability of Plant-Derived Cannabinoid Compounds in AB Red (stored at 8° C., 60 days): 1.66 µg/mL
Stability of Plant-Derived Cannabinoid Compounds in AB Red (stored at 8° C., 90 days): 1.68 µg/mL
Stability of Plant-Derived Cannabinoid Compounds in AB Red (stored at 8° C., 120 days): 1.65 µg/mL
Stability of Plant-Derived Cannabinoid Compounds in AB Red (stored at 8° C., 150 days): 1.66 µg/mL
Stability of Plant-Derived Cannabinoid Compounds in AB Red (stored at 8° C., 180 days): 1.60 µg/mL
Stability of Plant-Derived Cannabinoid Compounds in AB Red (stored at 8° C., 210 days): 1.65 µg/mL
Stability of Plant-Derived Cannabinoid Compounds in AB Red (stored at 8° C., 240 days): 1.66 µg/mL
Stability of Plant-Derived Cannabinoid Compounds in AB Red (stored at 8° C., 270 days): 1.63 µg/mL
Stability of Plant-Derived Cannabinoid Compounds in AB Red (stored at 8° C., 300 days): 1.65 µg/mL
Stability of Plant-Derived Cannabinoid Compounds in AB Red (stored at 8° C., 330 days): 1.60 µg/mL
Stability of Plant-Derived Cannabinoid Compounds in AB Red (stored at 8° C., 360 days): 1.62 µg/mL
Stability of Plant-Derived Cannabinoid Compounds in AB Red (stored at 8° C., 390 days): 1.63 µg/mL
Stability of Plant-Derived Cannabinoid Compounds in AB Red (stored at 8° C., 420 days): 1.63 µg/mL
Stability of Plant-Derived Cannabinoid Compounds in AB Red (stored at 8° C., 450 days): 1.63 µg/mL
Stability of Plant-Derived Cannabinoid Compounds in AB Red (stored at 8° C., 480 days): 1.60 µg/mL
Stability of Plant-Derived Cannabinoid Compounds in AB Red (stored at 8° C., 510 days): 1.55 µg/mL
Stability of Plant-Derived Cannabinoid Compounds in AB Red (stored at 8° C., 540 days): 1.55 µg/mL
Stability of Plant-Derived Cannabinoid Compounds in AB Red (stored at 8° C., 570 days): 1.54 µg/mL
Stability of Plant-Derived Cannabinoid Compounds in AB Red (stored at 21-25° C., 0 days): 1.68 µg/mL
Stability of Plant-Derived Cannabinoid Compounds in AB Red (stored at 21-25° C., 1 days): 1.70 µg/mL
Stability of Plant-Derived Cannabinoid Compounds in AB Red (stored at 21-25° C., 2 days): 1.65 µg/mL
Stability of Plant-Derived Cannabinoid Compounds in AB Red (stored at 21-25° C., 3 days): 1.64 µg/mL
Stability of Plant-Derived Cannabinoid Compounds in AB Red (stored at 21-25° C., 5 days): 1.69 µg/mL
Stability of Plant-Derived Cannabinoid Compounds in AB Red (stored at 21-25° C., 8 days): 1.64 µg/mL
Stability of Plant-Derived Cannabinoid Compounds in AB Red (stored at 21-25° C., 9 days): 1.63 µg/mL
Stability of Plant-Derived Cannabinoid Compounds in AB Red (stored at 21-25° C., 10 days): 1.61 µg/mL
Stability of Plant-Derived Cannabinoid Compounds in AB Red (stored at 21-25° C., 11 days): 1.64 µg/mL
Stability of Plant-Derived Cannabinoid Compounds in AB Red (stored at 21-25° C., 12 days): 1.70 µg/mL
Stability of Plant-Derived Cannabinoid Compounds in AB Red (stored at 21-25° C., 15 days): 1.64 µg/mL
Stability of Plant-Derived Cannabinoid Compounds in AB Red (stored at 21-25° C., 16 days): 1.67 µg/mL
Stability of Plant-Derived Cannabinoid Compounds in AB Red (stored at 21-25° C., 17 days): 1.63 µg/mL
Stability of Plant-Derived Cannabinoid Compounds in AB Red (stored at 21-25° C., 18 days): 1.65 µg/mL
Stability of Plant-Derived Cannabinoid Compounds in AB Red (stored at 21-25° C., 19 days): 1.70 µg/mL
Stability of Plant-Derived Cannabinoid Compounds in AB Red (stored at 21-25° C., 22 days): 1.66 µg/mL
Stability of Plant-Derived Cannabinoid Compounds in AB Red (stored at 21-25° C., 23 days): 1.63 µg/mL
Stability of Plant-Derived Cannabinoid Compounds in AB Red (stored at 21-25° C., 24 days): 1.65 µg/mL
Stability of Plant-Derived Cannabinoid Compounds in AB Red (stored at 21-25° C., 25 days): 1.64 µg/mL
Stability of Plant-Derived Cannabinoid Compounds in AB Red (stored at 21-25° C., 26 days): 1.67 µg/mL
Stability of Plant-Derived Cannabinoid Compounds in AB Red (stored at 21-25° C., 29 days): 1.62 µg/mL
Stability of Plant-Derived Cannabinoid Compounds in AB Red (stored at 21-25° C., 30 days): 1.68 µg/mL
Stability of Plant-Derived Cannabinoid Compounds in AB Red (stored at 21-25° C., 60 days): 1.59 µg/mL
Stability of Plant-Derived Cannabinoid Compounds in AB Red (stored at 21-25° C., 90 days): 1.60 µg/mL
Stability of Plant-Derived Cannabinoid Compounds in AB Red (stored at 21-25° C., 120 days): 1.64 µg/mL
Stability of Plant-Derived Cannabinoid Compounds in AB Red (stored at 21-25° C., 150 days): 1.58 µg/mL
Stability of Plant-Derived Cannabinoid Compounds in AB Red (stored at 21-25° C., 180 days): 1.64 µg/mL
Stability of Plant-Derived Cannabinoid Compounds in AB Red (stored at 21-25° C., 210 days): 1.64 µg/mL
Stability of Plant-Derived Cannabinoid Compounds in AB Red (stored at 21-25° C., 240 days): 1.60 µg/mL
Stability of Plant-Derived Cannabinoid Compounds in AB Red (stored at 21-25° C., 270 days): 1.65 µg/mL
Stability of Plant-Derived Cannabinoid Compounds in AB Red (stored at 21-25° C., 300 days): 1.58 µg/mL
Stability of Plant-Derived Cannabinoid Compounds in AB Red (stored at 21-25° C., 330 days): 1.65 µg/mL
Stability of Plant-Derived Cannabinoid Compounds in AB Red (stored at 21-25° C., 360 days): 1.58 µg/mL
Stability of Plant-Derived Cannabinoid Compounds in AB Red (stored at 21-25° C., 390 days): 1.61 µg/mL
Stability of Plant-Derived Cannabinoid Compounds in AB Red (stored at 21-25° C., 420 days): 1.59 µg/mL
Stability of Plant-Derived Cannabinoid Compounds in AB Red (stored at 21-25° C., 450 days): 1.57 µg/mL
Stability of Plant-Derived Cannabinoid Compounds in AB Red (stored at 21-25° C., 480 days): 1.57 µg/mL
Stability of Plant-Derived Cannabinoid Compounds in AB Red (stored at 21-25° C., 510 days): 1.56 µg/mL
Stability of Plant-Derived Cannabinoid Compounds in AB Red (stored at 21-25° C., 540 days): 1.57 µg/mL
Stability of Plant-Derived Cannabinoid Compounds in AB Red (stored at 21-25° C., 570 days): 1.54 µg/mL
